target: Factor IXa (Homo sapiens, UniProt P00740); experiment: Determination of inhibitory activity against Factor IXa (FIXa Low Enzyme; cleavage of fluorescent peptide CH3SO2-D-CHG-Gly-Arg-AFC); type: biochemical; conditions: fluorogenic peptide substrate CH3SO2-D-CHG-Gly-Arg-AFC.AcOH; excitation 405, emission 510
Protocol: Determination of Inhibitory Activity Against Factor IXa
Formation of a clot to stem bleeding at a site of blood vessel injury involves the coordinated activity of a group of plasma proteins that initiate and propagate fibrin formation and subsequently protect fibrin from premature degradation. Factor IX is a key component of the plasma system that forms a fibrin clot at a site of vascular injury. The activity of Factor IXa is measured by monitoring the cleavage of the fluorescent peptide, CH3SO2-D-CHG-Gly-Arg-AFC.AcOH (“CHG” is cyclohexyl-glycine and “AFC” is trifluoro aminomethyl coumarin). Factor IXa cleaves the […] bond between Arg and AFC, thereby releasing the AFC fluorophore. The free AFC can be detected with a fluorescence detector at an excitation wavelength of 405 nm and emission wavelength of 510 nm.

Chain of Factor IXa (P00740 227-461 limits assumed): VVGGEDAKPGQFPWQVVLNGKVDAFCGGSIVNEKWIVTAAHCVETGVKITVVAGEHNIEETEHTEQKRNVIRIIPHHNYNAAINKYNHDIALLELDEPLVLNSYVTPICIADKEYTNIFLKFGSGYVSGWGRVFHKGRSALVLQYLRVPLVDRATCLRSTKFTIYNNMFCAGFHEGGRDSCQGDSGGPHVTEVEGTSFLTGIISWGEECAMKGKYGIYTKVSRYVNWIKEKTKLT
Chain of Factor IXa (P00740 47-191 partner limits assumed): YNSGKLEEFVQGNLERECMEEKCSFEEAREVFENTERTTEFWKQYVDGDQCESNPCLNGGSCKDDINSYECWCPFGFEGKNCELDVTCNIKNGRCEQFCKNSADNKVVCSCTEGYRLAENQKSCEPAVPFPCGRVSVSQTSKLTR

FIXa Low Enzyme [nM] | Compound
102.1 | C[C@]1([C@@H](O)c2nc(=O)c3c(ccc4c(N)nsc43)[nH]2)OCCN(c2ccn(-c3ccc(=O)n(C(F)F)c3)n2)C1=O [Example 1, (R)-2-((S)-(3-Amino-9-oxo-6,9-dihydroisothiazolo[5,4-f]quinazolin-7-yl)(hydroxy)methyl)-4-(1-(1-(difluoromethyl)-6-oxo-1,6-dihydropyridin-3-yl)-1H-pyrazol-3-yl)-2-methylmorpholin-3-one]
8.597 | C[C@]1([C@@H](O)c2nc(=O)c3c(ccc4c(N)nsc43)[nH]2)OCCN(c2ccn(-c3ccnnc3)n2)C1=O [Example 2, (R)-2-((S)-(3-Amino-9-oxo-6,9-dihydroisothiazolo[5,4-f]quinazolin-7-yl)(hydroxy)methyl)-2-methyl-4-(1-(pyridazin-4-yl)-1H-pyrazol-3-yl)morpholin-3-one]
577.9 | C[C@](O)(c1nc(=O)c2c(ccc3c(N)nsc32)[nH]1)[C@H]1OCCN(c2cccc(C(F)(F)F)n2)C1=O [Example 3, (R)-2-((S)-1-(3-Amino-9-oxo-6,9-dihydroisothiazolo[5,4-f]quinazolin-7-yl)-1-hydroxyethyl)-4-(6-(trifluoromethyl)pyridin-2-yl)morpholin-3-one]
352.7 | CC(C)(O)c1cccc(N2CCO[C@](C)([C@@H](O)c3nc(=O)c4c(ccc5c(N)nsc54)[nH]3)C2=O)n1 [Example 4, (R)-2-((S)-(3-Amino-9-oxo-6,9-dihydroisothiazolo[5,4-f]quinazolin-7-yl)(hydroxy)methyl)-4-(6-(2-hydroxypropan-2-yl)pyridin-2-yl)-2-methylmorpholin-3-one]

— patent US9914727B2, “Factor IXa inhibitors” (Merck Sharp & Dohme Corp., priority 2012, dated 2018)
